13 molecules from patent US20080045495A1, “Treatment of Patients with Cystic Disease by Alteration of Fibrocystin Proteolysis” (BOARD OF REGENTS, THE UNIVERSITY OF TEXAS SYSTEM, priority 2006, published 2008) can be followed below.

Square brackets hold non-standard residues; d marks the D form. Peptide text beside a SMILES is read from it. * marks the point of attachment. Nle = CCCC[C@H](N)C(=O)O; Cbz = O=C(OCc1ccccc1)*

Common to all, as to assay type: cell-based, human
Experiment [1] has as its system fibrocystin cleavage in HEK-293 cells. The experiment in a line: Luciferase reporter assay of fibrocystin cleavage (pFC-GV / pG5-luc) in HEK-293 cells. To be noted: for cleavage of fibrocystin or stability of proteolytic fragments (luciferase activity): HEK-293, 12 hours. Here is the method: Reporter Gene Assays—mIMCD-3 cells, HEK-293 cells, or HeLa cells were plated in 6-well dishes (3×10^5 cells/well) and cotransfected with 0.05 μg phRL-TK(Int−) encoding Renilla luciferase (Promega, Madison, Wis.), 0.1 μg Photinus luciferase reporter plasmids, and 0.01-0.3 μg effector plasmids. Luciferase assays were performed as described previously (Hiesberger, 2004). Relative luciferase activity was calculated as the ratio of Photinus and Renilla luciferase.
(§1) FIG. 4 A is an image of a gel illustrating mIMCD3/FC cells were grown for 4 days and incubated with 0.1 μM thapsigargin (lane 2), 5 mM caffeine (lane 3), 75 μM dantrolene (lane 5), 200 μM ruthenium red (lane 7), or no additions (lanes 1, 4 and 6). After 2 hours, media were replaced with media lacking serum but containing the same supplements, and, in addition, 10 nM mifeprisone. Cell lysates were prepared after 24 hours and analyzed by immunoblotting using anti-V5 antibody. FIG. 4B is a graph of mIMCD-3 cells were transfected with 0.2 μg pG5-luc and either 0.2 μg pFC-GV or 0.2 μg pLDLR-GV. After 24 hours, cells were incubated in serum-free media in the presence or absence of 75 μM dantrolene. Relative luciferase activity was determined after 48 h. Data presented are mean ±SE of three separate transfections. The fibrocystin/Gal4-VP16 fusion protein is shown schematically below. Shaded box indicates the transmembrane segment; filled boxes indicate the N-terminal signal sequence and the C-terminal Gal4-VP16 fusion protein. FIG. 4C is an image of a gel illustrating HEK-293 cells transfected with 6 μg pFC-V5, and 8 hours later incubated in serum-free media containing 1-8 mM caffeine, 0.5 μM calphostin, or no additions. Cells were lysed after 16 h, and extracts were analyzed by immunoblotting using anti-V5 antibody. FIG. 4D is a graph of HEK-293 cells transfected with 0.2 μg pFC-GV and 0.2 μg pG5-luc. After 24 hours, cells were incubated in serum-free media containing 5 mM caffeine or no additions. Luciferase activity was measured after 12 hours. Data presented are mean ±SE of three separate transfections. FIG. 4E is an image of a gel illustrating HEK-293 cells stably expressing the m3 muscarinic receptor (lanes 1-4) and untransfected HEK-293 cells (lanes 5-8) were transfected with 6 μg pFC-V5. […] Cells were lysed after 16 hours, and extracts were analyzed by immunoblotting using anti-V5 antibody.
To quantitatively measure fibrocystin cleavage, a luciferase assay was developed that was similar to the ones employed to quantify the proteolytic cleavage of amyloid precursor protein (APP) and low density lipoprotein receptor related protein-1 (LRP1) (Cao, 2001; May, 2003). A plasmid (FC-GV) encoding the synthetic transcription factor Gal4-VP16 fused to the C-terminus of fibrocystin was generated. Proteolytic cleavage of the fibrocystin fusion protein releases Gal4-VP16, which translocates to the nucleus and activates a Gal4-responsive luciferase reporter gene (pG5-luc). Therefore, luciferase expression correlates with fibrocystin cleavage.
To quantify fibrocystin proteolysis in response to intracellular Ca^2+ release, the luciferase reporter assay was employed. HEK-293 cells were cotransfected with the plasmids pFC-GV and pG5-luc and incubated with either 5 mM caffeine or vehicle (as a control).
FIG. 5A is an image of a gel that illustrates HEK-293 cells were transfected with 6 μg pFC-V5.
(In general: Reporter assays use an easily measured gene product as a stand-in for the process of interest.)

The test system is the same in experiment [2]. The experiment in a line: Immunoblot (anti-V5) of fibrocystin proteolysis in HEK-293 cells transfected with pFC-V5. Here is the method:
as §1
FIG. 5A is an image of a gel that illustrates HEK-293 cells were transfected with 6 μg pFC-V5. […] Fourteen hours later, cellular proteins were extracted and analyzed by immunoblotting using anti-V5 antibody. FIG. 5B is an image of a gel mIMCD3/FC cells were grown for 4 days, and expression of fibrocystin was induced by addition of 10 nM mifepristone. After 24 hours, media were supplemented with 0.1, 0.5, or 1 μM calphostin C. Thirty hours later, cells were harvested, and proteins were analyzed by immunoblotting using anti-V5 antibody. FIG. 5C is an image of a gel illustrating HEK-293 cells were transfected with 3 μg pFC-V5 and either 3 μg of the empty vector pEF-neo (lanes 1 and 3) or 3 μg pEF-PKCαA/E (lanes 2 and 4). After 12 hours media were changed to media containing 10% FCS (lanes 1 and 2) or 0.2% BSA (lanes 3 and 4). Forty-eight hours later, cells were harvested, and proteins were subjected to immunoblotting using anti-V5 antibody. FIG. 5D is a plot illustrating HEK-293 cells transfected with 0.2 μg pG5-luc and 0.2 μg pFC-GV, pLDLR-GV and/or pEF-PKCαA/E. After 16 hours, media were changed to serum-free media containing 100 nM PMA or 500 μM Br-cAMP. Twenty-four hours later, cells were harvested, and relative luciferase activities were determined. Data are the mean ±SE of three independent transfections.
A general note: A western blot detects proteins with antibodies after separation by electrophoresis.

The test system of experiment [3] is fibrocystin cleavage in mIMCD3/FC cells. Kind of experiment: Immunoblot (anti-V5) of fibrocystin proteolytic fragments in mIMCD3/FC cells. To be noted: 30 hours; for cleavage of fibrocystin or stability of proteolytic fragments: FIG. 9.
Experiment [4] has the same test system. The description is as above. To be noted: FIG. 4A. How it is done: Cell Culture, Transfection and Generation of Stable Cell Lines—mIMCD-3 cells were plated at a density of 500,000 cells/100 mm dish, and 24 hours and 48 hours later the cells were transfected with 2 μg of pFC-V5 using Effectene (Qiagen, Valencia, Calif.). Cells were incubated for an additional 72 hours and lysed in 100 μl buffer containing Tris-buffered saline, 0.5% Triton X-100, protease inhibitor cocktail (Hoffmann-La Roche Inc., Indianapolis, Ind.). Twenty μl of the lysates were analyzed by SDS-PAGE, and immunoblot analysis was performed using HRP-conjugated anti-V5 as described previously (Hiesberger, 2005). mIMCD3/FC and mIMCD3/EGFP cell lines with inducible expression of fibrocystin and EGFP, respectively, were produced by transfecting mIMCD-3 cells with 1.5 μg pSwitch and either 1.5 μg pGeneFC or 1.5 μg pGeneEGFP. Stable transfectants were isolated after 14 days of growth in media containing hygromycin (350 μg/ml) and zeocin (300 μg/ml). To test for inducible expression, cells derived from individual clones were treated with mifepristone (10 nM) for 48 h or left untreated, and proteins were analyzed by immunoblotting using HRP-conjugated anti-FLAG. HEK-293 cells stably transfected with the muscarinic acetylcholine receptor M3 were a generous gift from Trevor Shuttleworth (University of Rochester Medical center) (Yang, 1995).
To further investigate the proteolytic cleavage of fibrocystin, mIMCD3/FC cells were generated, in which the expression of recombinant human fibrocystin can be induced by treatment with mifepristone.
FIG. 4 A is an image of a gel illustrating mIMCD3/FC cells were grown for 4 days and incubated with 0.1 μM thapsigargin (lane 2), 5 mM caffeine (lane 3), 75 μM dantrolene (lane 5), 200 μM ruthenium red (lane 7), or no additions (lanes 1, 4 and 6). After 2 hours, media were replaced with media lacking serum but containing the same supplements, and, in addition, 10 nM mifeprisone. Cell lysates were prepared after 24 hours and analyzed by immunoblotting using anti-V5 antibody. FIG. 4B is a graph of mIMCD-3 cells were transfected with 0.2 μg pG5-luc and either 0.2 μg pFC-GV or 0.2 μg pLDLR-GV. After 24 hours, cells were incubated in serum-free media in the presence or absence of 75 μM dantrolene. Relative luciferase activity was determined after 48 h. Data presented are mean ±SE of three separate transfections. The fibrocystin/Gal4-VP16 fusion protein is shown schematically below. […] Cells were lysed after 16 h, and extracts were analyzed by immunoblotting using anti-V5 antibody. […] Luciferase activity was measured after 12 hours. […] Cells were lysed after 16 hours, and extracts were analyzed by immunoblotting using anti-V5 antibody. […]

The mark [5] stands for this setting: 0.1, 0.5, or 1 μM calphostin C 24 hours after induction, FIG. 5B.

Take `C=C1[C@@H](C)[C@H]2[C@H](Cc3ccccc3)NC(=O)[C@]23OC(=O)/C=C/[C@H](O)CCC[C@@H](C)C/C=C/[C@H]3[C@@H]1O` [Cytochalasin B]: the “cleavage of fibrocystin or stability of proteolytic fragments (luciferase activity)” value (“cleavage … (luciferase activity)” below) in experiment [1] (10 μM Cytochalasin B, FIG. 11) is recorded as “modulated”.
For the molecule `CC(=O)O[C@H]1C(=O)[C@@]2(C)[C@H]([C@H](OC(=O)c3ccccc3)[C@]3(O)C[C@H](OC(=O)[C@H](O)[C@@H](NC(=O)c4ccccc4)c4ccccc4)C(C)=C1C3(C)C)[C@]1(OC(C)=O)CO[C@@H]1C[C@@H]2O` [Taxol], the “cleavage … (luciferase activity)” value in experiment [1] (Taxol in serum-free media, FIG. 10) is on record as “modulated”.
With calphostin C, the caffeine-induced fibrocystin proteolysis entry in experiment [2] (0.5 μM calphostin with caffeine, HEK-293, FIG. 4C) is on record as “prevented”. The “PMA-induced increase of proteolytic cleavage” value in experiment [2] (pretreatment with 0.5 μM calphostin C, 100 nM PMA, HEK-293, FIG. 5A) is “prevented”. Besides, in experiment [3] (setting [5]), the “expression levels of fibrocystin” value is on record as “did not alter” and the fibrocystin proteolysis entry is given as “dose-dependent inhibition”.
`N.N.N.N.N.N.N.N.N.N.N.N.N.N.[Cl-].[Cl-].[Cl-].[Cl-].[Cl-].[Cl-].[O-2].[O-2].[Ru+3].[Ru+3].[Ru+4]` [ruthenium red]: the “formation of FCA” value in experiment [4] (pretreatment with 200 μM ruthenium red) is “abolished”.
For the molecule `C/C1=C/C(=O)O[C@@H]2C[C@@H](CC[C@H](C)/C=C\CC1)O[C@@](O)([C@@H]1CSC(=O)N1)C2` [Latrunculin B], in experiment [1] (2 μg/ml Latrunculin, FIG. 11), the “cleavage … (luciferase activity)” value was “modulated”.
Turning to `CC(C)C[C@@H](C=O)NC(=O)[C@H](CC(C)C)NC(=O)[C@H](CC(C)C)NC(=O)OCc1ccccc1` [MG-132, Carbobenzoxy-L-leucyl-L-leucyl-L-leucinal] (Cbz-Leu-Leu-Leu-aldehyde), the fibrocystin cleavage products entry was “increased presence of cleavage products” in experiment [3] (2 μM MG-132 in combination with 20 μM ATP, FIG. 7) and “increase of fibrocystin cleavage products” in experiment [3] (2 μM MG-132 versus vehicle, FIG. 6).
On to `NCCOB(c1ccccc1)c1ccccc1` [2-APB], for which the “cleavage … (luciferase activity)” value in experiment [1] (50 μg/ml 2-APB, FIG. 11) is on record as “modulated”.
Regarding `CC(C)C[C@@H](C=O)NC(=O)[C@H](CC(C)C)NC(=O)[C@@H](NC(=O)OCc1ccccc1)C(C)C` [Z-VLL-CHO, Z-Val-Leu-Leu-CHO] (Cbz-Val-Leu-Leu-aldehyde), the “cleavage of fibrocystin or stability of proteolytic fragments” value in experiment [3] (15 μM Z-VLL-CHO) is given as “altered”.
Regarding `CCCCCCCCCCCCCC(=O)O[C@@H]1[C@@H](C)[C@@]2(O)[C@@H](C=C(CO)C[C@]3(O)C(=O)C(C)=C[C@@H]23)[C@@H]2C(C)(C)[C@]12OC(C)=O` [PMA, phorbol 12-myristate 13-acetate], in experiment [2] (100 nM PMA, HEK-293, 14 hours, FIG. 5A), the “proteolytic cleavage of fibrocystin” value is reported as “marked increase”. Moreover, the “total expression of fibrocystin (CMV promoter)” value in experiment [2] (100 nM PMA, HEK-293, FIG. 5A) is on record as “increased”. For the same molecule, the “increase of luciferase activity” value in experiment [1] (100 nM PMA, serum-free media, HEK-293, 24 hours, FIG. 5D) is on record as 27 fold.
As for `COC(=O)Nc1nc2ccc(C(=O)c3cccs3)cc2[nH]1` [Nocodazole], the “cleavage … (luciferase activity)” value in experiment [1] (10 μg/ml Nocodazole, FIG. 11) is on record as “modulated”.
As for `C/C=C(/C)C(=O)O[C@H]1C(C)=C2[C@H]([C@@H]1OC(=O)CCCCCCC)[C@@](C)(OC(C)=O)C[C@H](OC(=O)CCC)[C@@]1(O)[C@H]2OC(=O)[C@@]1(C)O` [thapsigargin], the “generation of the FCA fragment” value in experiment [4] (pretreatment with 0.1 μM thapsigargin, lysates after 24 hours) is “abolished”.
Turning to `CCCC[C@@H](C=O)NC(=O)[C@H](CC(C)C)NC(=O)[C@H](CC(C)C)NC(C)=O` [ALLN, Ac-Leu-Leu-Nle-CHO] (Ac-Leu-Leu-[Nle]-aldehyde), in experiment [2] (10 μM ALLN versus vehicle, 14 hours, HEK-293, FIG. 8), the “abundance of fibrocystin proteolytic fragments” value was “alteration of the abundance”. Besides, the “cleavage of fibrocystin or stability of proteolytic fragments” value in experiment [3] (10 μM ALLN) is “altered”.
In the case of `C[N+](C)(C)CCOC(N)=O` [carbachol], in experiment [2] (100 μM carbachol, HEK-293 cells without m3 receptor, 16 hours, FIG. 4E), the fibrocystin cleavage entry is reported as “only in HEK-293(m3) cells”.
